According to ChEMBL document CHEMBL1201862, “PubChem BioAssay data set” (2004):
Where “and” joins values, the source holds several entries; their conditions need not be identical. Equal values may be shown once. Calls of active or inactive are those of the source.

How the values were obtained:
[1] = molecular target: Protein disulfide-isomerase (Homo sapiens, UniProt P07237); assay: PDI inhibitors, insulin turbidity readout, confirmation, biochemical, dry powder samples, set 2 (AID 652146)
[2] = molecular target: DNA dC->dU-editing enzyme APOBEC-3A (Homo sapiens, UniProt P31941); assay: Dose Response confirmation of small molecule APOBEC3A DNA Deaminase Inhibitors via a fluorescence-based single-stranded DNA deaminase assay. [Related pubchem assays (depositor defined):AID493011, AID493024]; type: functional
[3] = THP-1 cell cytotoxicity, dose response, cytotoxicity control for Vif-APOBEC3G degradation inhibitor project, THP-1 cells (AID 1117359); type: functional; settings: Human immunodeficiency virus 1, THP-1
Caspase-8 = Caspase-8 (Homo sapiens, UniProt Q14790); assay: caspase-8 inhibition counter-screen, dose response, selectivity assay for caspase-6 inhibitor project, biochemical, Z-IETD-R110 fluorescence, cherry-picked samples (AID 743294)
[4] = molecular target: DNA dC->dU-editing enzyme APOBEC-3G (Homo sapiens, UniProt Q9HC16); type: functional;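 also: Dose-response counterscreen measuring inhibition of APOBEC3G DNA deaminase activity, run while confirming APOBEC3A inhibitors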
Protein Tat = Protein Tat (Human immunodeficiency virus type 1 group M subtype B (isolate HXB2)(HIV-1), UniProt P04608); type: functional;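 also: tat binding to TAR RNA read out by fluorescence polarization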
Caspase-6 = molecular target: T1, Caspase-6 (Homo sapiens, UniProt P55212); assay: human caspase-6 inhibitors, dose response, biochemical, VEID-R110 fluorescence, cherry-pick (AID 720632)
T1 sequence (P55212 whole entry): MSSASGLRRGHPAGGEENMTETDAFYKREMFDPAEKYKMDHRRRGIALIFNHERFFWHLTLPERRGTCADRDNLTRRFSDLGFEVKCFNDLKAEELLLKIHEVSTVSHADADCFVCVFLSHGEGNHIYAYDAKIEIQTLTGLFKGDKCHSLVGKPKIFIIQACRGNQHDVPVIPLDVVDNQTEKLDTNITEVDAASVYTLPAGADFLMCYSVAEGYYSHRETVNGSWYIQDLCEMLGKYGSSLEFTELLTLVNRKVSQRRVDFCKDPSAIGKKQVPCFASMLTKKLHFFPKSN

[5] = Counterscreen for activators of the function of SWI/SNF related, matrix associated, actin dependent regulator of chromatin, subfamily a, member 2 (SMARCA2, BRM): Luminescence-based cell-based high throughput dose response assay to identify non-selective compounds using the VP16 reporter assay.; type: functional
[6] = molecular target: SWI/SNF-related matrix-associated actin-dependent regulator of chromatin subfamily A member 2 (Homo sapiens, UniProt P51531); assay: Luminescence-based cell-based high throughput dose response assay to identify activators of the function of SWI/SNF related, matrix associated, actin dependent regulator of chromatin, subfamily a, member 2 (SMARCA2, BRM).; type: functional
[7] = molecular target: Endoplasmic reticulum aminopeptidase 1 (Homo sapiens, UniProt Q9NZ08); assay: ERAP1 aminopeptidase inhibitors, dose response, biochemical, cherry-pick, set 2, plate reader (AID 743314)
[8] = molecular target: T2, Beta-2 adrenergic receptor (Homo sapiens, UniProt P07550); assay: Dose response for HTS for Beta-2AR agonists via FAP method from Powderset2.; type: functional
[9] = molecular target: T2, Beta-2 adrenergic receptor; assay: beta2AR agonists driving receptor internalization, dose response, cell-based, FAP fluorogen, flow cytometry, cherry pick 1 (AID 588763); type: functional
fMet-Leu-Phe receptor = fMet-Leu-Phe receptor (Homo sapiens, UniProt P21462); assay: FPR ligands, dose response (AID 519); type: functional
[10] = HEK293T cell cytotoxicity, dose response, cytotoxicity control for HIV Vif inhibitor project, cherry-picks (AID 652208); type: functional, cell-based
Vero [11] = assay: cells; type: functional; settings: Chlorocebus sabaeus
Vero [12] = assay: Vero cell toxicity, dose response, cytotoxicity control, plate reader, cherry-pick samples (AID 687020); type: functional, cell-based; settings: Chlorocebus sabaeus
[13] = Late stage assay provider results from the probe development effort to identify selective inhibitors of heat shock protein 90 (HSP90): Absorbance-based cell proliferation assay in MCF7 cells.; type: functional
[14] = Late stage assay provider results from the probe development effort to identify selective inhibitors of heat shock protein 90 (HSP90): Absorbance-based cell proliferation assay in SKBR3 cells.; type: functional; settings: SK-BR-3
[15] = T. cruzi growth inhibition in host cells, dose response, cell-based, plate reader, dry powder, set 2 (AID 652275); type: functional
[16] = BHK-21 cell cytotoxicity, cytotoxicity control for flavivirus guanylyltransferase probe project, secondary screen (AID 624078); type: functional
[17] = molecular target: Kappa-type opioid receptor (Homo sapiens, UniProt P41145); assay: Late-stage fluorescence-based cell-based dose response assay for antagonists of kappa opioid receptor 1 (OPRK1).; type: functional
Mu-type opioid receptor = Mu-type opioid receptor (Homo sapiens, UniProt P35372); assay: Late-stage results from the probe development effort to identify antagonists of OPRK1: luminescence-based cell-based dose response OPRM1 counterscreen, Set 2.; type: functional
[18] = molecular target: Sphingosine 1-phosphate receptor 1 (Homo sapiens, UniProt P21453); assay: Late-stage counterscreen for antagonists of kappa opioid receptor 1 (OPRK1): fluorescence-based cell-based dose response assay to identify antagonists of Sphingosine 1-Phosphate Receptor 1 (S1P1).; type: functional
[19] = molecular target: Delta-type opioid receptor (Homo sapiens, UniProt P41143); assay: Late-stage results from the probe development effort to identify antagonists of OPRK1: fluorescence-based cell-based dose response OPRD1 counterscreen, Set 2.; type: functional
cells [20] = settings: A549
HeLa = assay: HeLa cell cytotoxicity, dose response, cytotoxicity control for MITF activator project, CellTiter-Glo luminescence, cherry-pick samples (AID 540259); type: functional, cell-based; settings: Homo sapiens
cells [21] = settings: HEK293
Albumin = Albumin (Bos taurus, UniProt P02769); assay: Counterscreen for inhibitors of T-cell receptor (TCR)-CD3 interaction: Fluorescence-based biochemical high throughput dose response assay to identify inhibitors of T-cell receptor (TCR)-CD3 interaction using a TAMRA-labeled BSA probe.; type: functional
Nonstructural protein 1 = Nonstructural protein 1 (Influenza A virus, UniProt Q194T2); type: functional, Influenza A virus (A/California/07/2009(H1N1))
Caspase-3 = molecular target: T3, Caspase-3 (Homo sapiens, UniProt P42574); assay: Dose-response confirmation of uHTS inhibitor hits of Sentrin-Specific Protease 8 in a Caspase-3 Fluorescence assay.; type: functional
T3 sequence (P42574 whole entry): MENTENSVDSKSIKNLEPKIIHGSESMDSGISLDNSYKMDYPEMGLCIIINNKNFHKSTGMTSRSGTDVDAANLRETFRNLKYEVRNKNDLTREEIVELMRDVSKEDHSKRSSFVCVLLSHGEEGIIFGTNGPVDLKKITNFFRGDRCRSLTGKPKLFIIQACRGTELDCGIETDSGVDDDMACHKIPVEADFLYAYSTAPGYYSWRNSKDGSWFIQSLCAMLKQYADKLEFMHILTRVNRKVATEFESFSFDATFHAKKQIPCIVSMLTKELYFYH

[22] = molecular target: T4, Sentrin-specific protease 8 (Homo sapiens, UniProt Q96LD8); type: functional
T4 sequence (Q96LD8 whole entry): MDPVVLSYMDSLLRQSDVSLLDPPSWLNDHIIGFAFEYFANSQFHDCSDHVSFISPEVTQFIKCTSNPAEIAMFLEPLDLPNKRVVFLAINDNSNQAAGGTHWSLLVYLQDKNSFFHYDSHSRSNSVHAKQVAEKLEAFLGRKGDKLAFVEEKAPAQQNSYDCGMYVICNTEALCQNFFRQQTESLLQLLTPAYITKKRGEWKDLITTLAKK

[23] = molecular target: T4, Sentrin-specific protease 8; type: functional; remark: listed apart in the source
Protein RecA = molecular target: T5, Protein RecA (Mycobacterium tuberculosis, UniProt P9WHJ3); assay: Fluorescence Cell-Free Homogeneous Dose Retest to Identify Inhibitors of RecA-Intein Splicing Activity. [Related pubchem assays (depositor defined):AID2097, AID2223, AID489010, AID492950]; type: functional
T5 sequence (P9WHJ3 whole entry): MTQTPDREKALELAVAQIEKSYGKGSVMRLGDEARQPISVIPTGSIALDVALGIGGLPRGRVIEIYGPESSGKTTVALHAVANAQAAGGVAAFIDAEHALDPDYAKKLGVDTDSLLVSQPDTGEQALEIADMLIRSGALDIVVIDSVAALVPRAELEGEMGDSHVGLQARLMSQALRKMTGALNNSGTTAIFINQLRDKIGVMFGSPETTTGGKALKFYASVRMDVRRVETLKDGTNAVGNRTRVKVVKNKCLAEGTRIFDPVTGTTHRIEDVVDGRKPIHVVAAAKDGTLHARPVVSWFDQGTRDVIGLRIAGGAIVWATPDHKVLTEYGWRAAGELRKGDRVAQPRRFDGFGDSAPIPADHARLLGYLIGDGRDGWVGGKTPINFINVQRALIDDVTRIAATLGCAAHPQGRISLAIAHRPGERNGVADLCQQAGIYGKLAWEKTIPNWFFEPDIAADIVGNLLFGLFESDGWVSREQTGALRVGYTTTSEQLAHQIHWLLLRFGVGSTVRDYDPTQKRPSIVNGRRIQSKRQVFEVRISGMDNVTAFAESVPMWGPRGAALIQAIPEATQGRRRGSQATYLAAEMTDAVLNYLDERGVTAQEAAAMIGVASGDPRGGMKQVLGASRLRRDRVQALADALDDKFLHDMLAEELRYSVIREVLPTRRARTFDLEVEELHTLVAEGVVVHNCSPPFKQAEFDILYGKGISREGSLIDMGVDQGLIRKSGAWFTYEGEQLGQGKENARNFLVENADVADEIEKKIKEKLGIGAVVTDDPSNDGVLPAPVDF

[24] = molecular target: T6, Replicative DNA helicase DnaB (Mycobacterium tuberculosis, UniProt P9WMR3); assay: DnaB intein splicing inhibitors, dose response, biochemical, cell-free fluorescence (AID 449749); type: functional
T6 sequence (P9WMR3 whole entry): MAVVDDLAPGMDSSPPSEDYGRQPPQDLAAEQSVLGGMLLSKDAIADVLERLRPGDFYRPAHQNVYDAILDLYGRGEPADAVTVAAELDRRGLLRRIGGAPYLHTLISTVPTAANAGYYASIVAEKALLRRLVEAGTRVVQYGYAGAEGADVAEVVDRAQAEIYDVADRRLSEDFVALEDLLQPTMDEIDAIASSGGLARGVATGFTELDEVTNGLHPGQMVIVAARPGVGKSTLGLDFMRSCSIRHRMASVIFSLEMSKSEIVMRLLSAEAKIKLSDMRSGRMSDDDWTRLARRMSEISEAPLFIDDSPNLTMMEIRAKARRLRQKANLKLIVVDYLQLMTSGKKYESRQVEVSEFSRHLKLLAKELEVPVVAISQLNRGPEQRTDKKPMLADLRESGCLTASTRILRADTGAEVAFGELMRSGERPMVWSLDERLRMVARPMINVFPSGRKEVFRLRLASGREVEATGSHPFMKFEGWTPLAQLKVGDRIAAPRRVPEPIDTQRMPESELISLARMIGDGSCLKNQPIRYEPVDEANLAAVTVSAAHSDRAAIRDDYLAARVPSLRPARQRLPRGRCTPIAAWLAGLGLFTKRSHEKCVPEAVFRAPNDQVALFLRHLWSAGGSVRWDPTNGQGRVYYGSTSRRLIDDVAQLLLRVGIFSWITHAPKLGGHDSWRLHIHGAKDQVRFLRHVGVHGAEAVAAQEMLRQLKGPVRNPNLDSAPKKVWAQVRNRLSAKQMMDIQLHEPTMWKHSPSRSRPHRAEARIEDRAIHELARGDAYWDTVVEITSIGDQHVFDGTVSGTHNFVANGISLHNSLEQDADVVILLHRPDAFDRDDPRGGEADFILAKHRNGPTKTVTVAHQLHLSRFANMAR

T2 sequence (P07550 whole entry): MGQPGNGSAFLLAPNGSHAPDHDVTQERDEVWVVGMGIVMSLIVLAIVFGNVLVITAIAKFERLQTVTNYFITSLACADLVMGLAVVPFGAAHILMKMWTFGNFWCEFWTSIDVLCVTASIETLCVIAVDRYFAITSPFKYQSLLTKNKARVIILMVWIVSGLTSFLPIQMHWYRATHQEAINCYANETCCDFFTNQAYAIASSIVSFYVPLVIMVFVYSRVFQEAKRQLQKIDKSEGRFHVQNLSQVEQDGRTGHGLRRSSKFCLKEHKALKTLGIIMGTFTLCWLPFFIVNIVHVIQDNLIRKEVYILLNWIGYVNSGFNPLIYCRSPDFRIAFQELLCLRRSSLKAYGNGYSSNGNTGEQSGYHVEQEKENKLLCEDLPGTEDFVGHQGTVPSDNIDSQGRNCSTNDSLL
Sequence of Mu-type opioid receptor (P35372 whole entry): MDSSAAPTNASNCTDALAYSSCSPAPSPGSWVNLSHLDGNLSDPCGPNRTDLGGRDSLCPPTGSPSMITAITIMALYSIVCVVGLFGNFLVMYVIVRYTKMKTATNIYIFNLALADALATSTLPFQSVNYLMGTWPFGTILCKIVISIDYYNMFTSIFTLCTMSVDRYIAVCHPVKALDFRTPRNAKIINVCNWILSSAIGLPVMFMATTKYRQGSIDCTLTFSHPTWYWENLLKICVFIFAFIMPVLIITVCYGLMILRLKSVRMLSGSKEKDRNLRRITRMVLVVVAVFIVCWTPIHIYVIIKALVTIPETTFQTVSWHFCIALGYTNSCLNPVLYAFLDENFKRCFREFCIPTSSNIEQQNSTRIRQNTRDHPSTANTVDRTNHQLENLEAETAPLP
Sequence of Protein Tat (P04608 whole entry): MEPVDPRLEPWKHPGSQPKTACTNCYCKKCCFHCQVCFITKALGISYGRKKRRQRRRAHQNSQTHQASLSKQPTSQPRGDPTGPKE
Sequence of Nonstructural protein 1 (Q194T2 whole entry): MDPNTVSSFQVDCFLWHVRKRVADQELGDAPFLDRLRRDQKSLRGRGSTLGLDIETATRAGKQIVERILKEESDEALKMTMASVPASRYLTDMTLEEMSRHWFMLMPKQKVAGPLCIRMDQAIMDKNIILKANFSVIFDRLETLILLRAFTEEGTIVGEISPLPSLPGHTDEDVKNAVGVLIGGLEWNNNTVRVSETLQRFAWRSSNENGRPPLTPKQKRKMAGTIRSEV
Sequence of DNA dC->dU-editing enzyme APOBEC-3A (P31941 whole entry): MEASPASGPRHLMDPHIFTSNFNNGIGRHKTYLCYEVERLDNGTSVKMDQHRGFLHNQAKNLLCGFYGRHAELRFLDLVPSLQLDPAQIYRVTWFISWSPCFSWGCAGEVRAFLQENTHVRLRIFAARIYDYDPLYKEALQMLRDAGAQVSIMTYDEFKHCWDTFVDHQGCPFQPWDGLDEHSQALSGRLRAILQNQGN
Sequence of Albumin (P02769 whole entry): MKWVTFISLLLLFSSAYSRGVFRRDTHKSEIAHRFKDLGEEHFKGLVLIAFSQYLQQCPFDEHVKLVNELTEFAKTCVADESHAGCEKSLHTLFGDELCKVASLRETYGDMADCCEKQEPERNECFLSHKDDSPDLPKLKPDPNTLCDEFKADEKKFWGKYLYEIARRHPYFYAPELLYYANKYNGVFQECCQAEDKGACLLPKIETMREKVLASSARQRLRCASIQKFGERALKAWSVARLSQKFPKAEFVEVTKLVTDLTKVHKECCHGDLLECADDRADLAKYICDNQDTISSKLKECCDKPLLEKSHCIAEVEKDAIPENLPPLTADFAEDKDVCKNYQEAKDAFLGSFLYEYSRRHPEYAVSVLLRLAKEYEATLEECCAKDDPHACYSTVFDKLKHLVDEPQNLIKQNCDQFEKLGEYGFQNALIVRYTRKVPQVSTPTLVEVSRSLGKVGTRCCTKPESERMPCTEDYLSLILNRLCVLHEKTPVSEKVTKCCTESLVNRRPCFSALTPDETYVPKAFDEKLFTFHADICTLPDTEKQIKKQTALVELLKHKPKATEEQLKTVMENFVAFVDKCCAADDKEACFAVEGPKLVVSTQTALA
Sequence of Delta-type opioid receptor (P41143 whole entry): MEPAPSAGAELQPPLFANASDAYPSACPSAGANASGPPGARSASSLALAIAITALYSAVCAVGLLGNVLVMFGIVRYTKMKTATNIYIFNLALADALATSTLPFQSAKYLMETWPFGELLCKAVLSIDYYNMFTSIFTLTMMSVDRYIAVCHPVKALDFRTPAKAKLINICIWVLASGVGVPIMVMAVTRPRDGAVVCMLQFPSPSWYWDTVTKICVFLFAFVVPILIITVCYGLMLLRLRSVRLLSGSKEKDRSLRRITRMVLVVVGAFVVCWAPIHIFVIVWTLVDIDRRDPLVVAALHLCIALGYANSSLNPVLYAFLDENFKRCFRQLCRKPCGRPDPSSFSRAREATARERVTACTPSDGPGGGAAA
Sequence of Kappa-type opioid receptor (P41145 whole entry): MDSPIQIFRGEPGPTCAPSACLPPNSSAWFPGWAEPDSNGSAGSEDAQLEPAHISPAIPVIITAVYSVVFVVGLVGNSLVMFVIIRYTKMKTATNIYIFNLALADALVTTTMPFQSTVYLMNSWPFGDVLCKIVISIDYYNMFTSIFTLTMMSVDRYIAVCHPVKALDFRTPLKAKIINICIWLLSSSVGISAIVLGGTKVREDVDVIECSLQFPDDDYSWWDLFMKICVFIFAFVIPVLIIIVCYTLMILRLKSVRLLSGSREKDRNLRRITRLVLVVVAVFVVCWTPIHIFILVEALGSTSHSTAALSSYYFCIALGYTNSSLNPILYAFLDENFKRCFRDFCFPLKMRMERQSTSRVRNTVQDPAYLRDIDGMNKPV
Sequence of Caspase-8 (Q14790 217-374 limits assumed): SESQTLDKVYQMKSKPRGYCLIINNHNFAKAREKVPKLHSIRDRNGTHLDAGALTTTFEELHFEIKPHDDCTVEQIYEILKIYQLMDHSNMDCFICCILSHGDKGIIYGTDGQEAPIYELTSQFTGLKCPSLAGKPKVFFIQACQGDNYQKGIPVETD
Sequence of Caspase-8 (Q14790 385-479 limits assumed): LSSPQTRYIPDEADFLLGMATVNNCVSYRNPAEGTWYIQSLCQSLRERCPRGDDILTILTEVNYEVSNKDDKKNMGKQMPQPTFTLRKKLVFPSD
Sequence of Protein disulfide-isomerase (P07237 whole entry): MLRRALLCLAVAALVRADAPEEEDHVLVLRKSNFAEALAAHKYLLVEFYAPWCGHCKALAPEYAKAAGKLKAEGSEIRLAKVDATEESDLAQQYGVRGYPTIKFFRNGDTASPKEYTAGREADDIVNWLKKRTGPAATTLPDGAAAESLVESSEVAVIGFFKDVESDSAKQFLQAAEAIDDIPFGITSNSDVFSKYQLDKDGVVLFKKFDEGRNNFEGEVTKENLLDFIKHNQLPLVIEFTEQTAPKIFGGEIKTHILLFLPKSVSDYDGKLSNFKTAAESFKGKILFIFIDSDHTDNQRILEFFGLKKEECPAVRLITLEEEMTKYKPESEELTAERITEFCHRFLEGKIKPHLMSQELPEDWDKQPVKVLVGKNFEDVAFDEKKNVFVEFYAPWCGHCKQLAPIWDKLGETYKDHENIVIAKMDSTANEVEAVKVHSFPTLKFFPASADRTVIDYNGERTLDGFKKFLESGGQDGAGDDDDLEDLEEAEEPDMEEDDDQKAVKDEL
Sequence of Endoplasmic reticulum aminopeptidase 1 (Q9NZ08 whole entry): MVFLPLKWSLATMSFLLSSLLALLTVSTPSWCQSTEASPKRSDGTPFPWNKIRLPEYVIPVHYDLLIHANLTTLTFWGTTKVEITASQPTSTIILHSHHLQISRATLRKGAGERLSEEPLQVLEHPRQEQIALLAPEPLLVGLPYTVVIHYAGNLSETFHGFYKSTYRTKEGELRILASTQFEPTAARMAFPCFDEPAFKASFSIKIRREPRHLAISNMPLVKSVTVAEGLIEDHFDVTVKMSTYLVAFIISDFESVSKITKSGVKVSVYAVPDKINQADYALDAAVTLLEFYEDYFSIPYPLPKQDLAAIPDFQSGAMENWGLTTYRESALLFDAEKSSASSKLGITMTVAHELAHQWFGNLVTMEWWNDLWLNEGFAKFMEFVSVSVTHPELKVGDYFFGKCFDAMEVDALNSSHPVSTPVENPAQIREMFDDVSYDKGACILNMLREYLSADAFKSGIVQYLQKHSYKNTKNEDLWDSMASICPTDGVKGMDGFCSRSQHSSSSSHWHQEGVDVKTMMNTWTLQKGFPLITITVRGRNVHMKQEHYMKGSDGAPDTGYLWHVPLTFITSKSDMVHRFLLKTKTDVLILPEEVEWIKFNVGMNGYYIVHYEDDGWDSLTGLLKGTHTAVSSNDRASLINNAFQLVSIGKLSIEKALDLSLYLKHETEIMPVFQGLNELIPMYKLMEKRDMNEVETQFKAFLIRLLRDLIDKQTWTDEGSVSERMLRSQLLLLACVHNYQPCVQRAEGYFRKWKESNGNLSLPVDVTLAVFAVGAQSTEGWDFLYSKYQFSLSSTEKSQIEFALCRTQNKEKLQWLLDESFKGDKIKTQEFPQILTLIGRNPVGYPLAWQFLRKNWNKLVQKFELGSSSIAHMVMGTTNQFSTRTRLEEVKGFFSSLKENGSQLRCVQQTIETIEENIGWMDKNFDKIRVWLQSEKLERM
Sequence of fMet-Leu-Phe receptor (P21462 whole entry): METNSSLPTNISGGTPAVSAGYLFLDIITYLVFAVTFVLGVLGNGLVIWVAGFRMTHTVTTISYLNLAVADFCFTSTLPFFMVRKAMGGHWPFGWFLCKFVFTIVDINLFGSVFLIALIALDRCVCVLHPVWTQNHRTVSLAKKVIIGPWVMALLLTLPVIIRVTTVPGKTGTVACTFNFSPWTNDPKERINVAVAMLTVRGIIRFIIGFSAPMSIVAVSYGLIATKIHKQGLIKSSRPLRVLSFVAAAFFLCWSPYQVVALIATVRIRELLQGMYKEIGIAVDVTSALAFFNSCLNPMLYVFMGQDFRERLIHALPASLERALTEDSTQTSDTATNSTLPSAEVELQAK

## CCOC(=O)C1(CCOc2ccccc2)CCN(Cc2ccc(O)cc2)CC1
[1]
  AC50: 10 µM (active)

## CN(CC(=O)Nc1c(Cl)cccc1Cl)C(=O)c1cccc(-n2cccc2)c1
[2]
  IC50: 13.9 µM (active)
[3]
  CC50: > 40 µM (active)
Caspase-8
  AC50: > 70 µM (inactive)
[4]
  IC50: 34.6 µM (active)
Protein Tat
  IC50: > 100 µM (active)
Caspase-6
  AC50: 1.88 µM (active)

## COc1ccc(Br)c(C(=O)Nc2nc3ccccc3[nH]2)c1
[5]
  EC50: > 91.1 µM (inactive)
[6]
  EC50: > 91.1 µM (inactive)

## COCCCn1c(C(=O)N2CCOCC2)cc2c(=O)n3ccccc3nc21
[7]
  AC50: 9.81 µM (active)

## CCOC(=O)c1ccc(NC(=O)COc2ccc(S(=O)(=O)N3CCCC3)cc2)cc1
[8]
  EC50: 1.37 µM (active)
[9]
  EC50: 391 nM (active) and 162 nM (active)

## CCC(SC1=Nc2ccccc2C2=NC(CC(C)C)C(=O)N12)C(=O)Nc1ccc2c(c1)OCO2 (stereo not given)
fMet-Leu-Phe receptor
  Ki: 37.6 µM (inactive)

## CCn1cc(CN2CCCC(C(=O)Nc3cccc(-c4cc5ccccc5[nH]4)c3)C2)c(C)n1 (stereo not given)
[10]
  AC50: 40.9 µM (active)
Vero [11]
  CC50: 24.9 µM (active)

## CC1CCC(CN2CCN=C2Nc2ccccc2)CC1 (stereo not given)
Vero [12]
  AC50: 31.6 µM (active)

## CCOc1ccc(NC(=O)c2cc(=O)c(OC)c[nH]2)cc1
[13]
  IC50: > 100 µM (inactive)
[14]
  IC50: > 100 µM (inactive)

## CC(C)N1C[C@@H](CN(C)Cc2ccc(Cl)cc2)Oc2c(NC(=O)c3cn(C)cn3)cccc2C1=O
[15]
  AC50: 0.0198 µM (active)

## COc1ccc(OC)c(S(=O)(=O)Nc2cc(SCC(=O)O)c(O)c3ccccc23)c1
[16]
  CC50: 9.6 µM (active)

## COc1ccc(OS(=O)(=O)c2sc(Br)cc2Br)cc1
[17]
  IC50: 16.9 µM (inactive)
Mu-type opioid receptor
  IC50: > 50 µM (inactive)
[18]
  IC50: > 50 µM (inactive)
[19]
  IC50: 35.7 µM (inactive)

## CC(C)(C)c1csc(N/N=C/c2ccc(O)cc2)n1
Cells [20]
  AC50: > 52 µM (inactive)
HeLa
  AC50: 69.4 µM (active)
Cells [21]
  AC50: > 52 µM (inactive)

## Nc1nnc(CC(=O)N/N=C\c2cc([N+](=O)[O-])ccc2O)s1
Albumin
  IC50: > 94.1 µM (inactive)
Nonstructural protein 1
  IC50: 7.93 µM (active)

## CCOC(=O)c1nn(-c2ccc(OC)cc2)c(=O)c2c(N)scc12
Caspase-3
  IC50: 23 µM (active)
[22]
  IC50: 5.63 µM (active)
[23]
  IC50: 6.99 µM (active)
Protein RecA
  EC50: 1.59 µM (active)
[24]
  AC50: 23.2 µM (active)
Caspase-6
  AC50: 34.3 µM (active)
